Data on one substance can be found in publication PMC7954447 (Science Advances, 2021).

This experiment deals with human α7 nicotinic ACh receptor (nAChR) (Homo sapiens, UniProt P36544). The format is cell-based.

pIC50: −log10 of the molar value.

Chain of human α7 nicotinic ACh receptor (nAChR) (P36544 23-502): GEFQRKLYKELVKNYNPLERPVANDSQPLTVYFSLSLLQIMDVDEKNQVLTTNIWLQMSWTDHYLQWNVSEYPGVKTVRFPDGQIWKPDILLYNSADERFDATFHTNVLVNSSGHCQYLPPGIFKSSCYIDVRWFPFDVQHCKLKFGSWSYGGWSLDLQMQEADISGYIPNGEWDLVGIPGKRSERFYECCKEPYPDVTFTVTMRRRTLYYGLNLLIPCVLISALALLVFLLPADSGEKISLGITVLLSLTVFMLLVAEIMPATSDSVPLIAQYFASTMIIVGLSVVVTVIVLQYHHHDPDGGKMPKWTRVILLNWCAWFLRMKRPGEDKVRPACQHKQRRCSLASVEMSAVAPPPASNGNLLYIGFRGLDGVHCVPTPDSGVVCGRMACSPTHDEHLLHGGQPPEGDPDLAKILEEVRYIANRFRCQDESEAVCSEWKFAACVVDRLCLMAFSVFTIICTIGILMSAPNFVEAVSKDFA

Usually pIC50 stands for the IC50 on a negative log10 scale, so that one unit is a factor of ten. Read a high pIC50 as a low IC50. In turn, Conazolium A [compound 1] gave a pIC50 of 4.61.
